The values below come from patent publication US10098878B2, “HIF-2α inhibitors for treating iron overload disorders” (The Board of Regents of the University of Texas System, priority 2014, dated 2018).

The structures appear in SMILES notation.

The first test deals with T1, HIF-2α HIS TAG-PASB Domain (Homo sapiens, UniProt Q99814).
T1 construct: 100 nM HIF-2α HIS TAG-PASB Domain
T1 sequence (Q99814 240-350 limits assumed): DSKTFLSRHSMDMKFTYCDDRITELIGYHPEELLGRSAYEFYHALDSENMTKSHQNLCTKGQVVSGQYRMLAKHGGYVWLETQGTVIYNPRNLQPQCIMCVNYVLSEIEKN
Briefly: HIF-2α Scintillation Proximity Assay (SPA). The class given is binding. The settings on record: 150 nM Compound 211 probe, 100 nM HIF-2α HIS TAG-PASB Domain; read-out: SPA IC50. Here is the method:
The total assay volume was about 100 μL in the following configuration: 2 μL compound in 100% DMSO, 88 μL buffer with protein and probe and 10 μL of SPA beads. […] The percent inhibition was determined and IC50 values were calculated using the Dotmatics system based on the following equation: % inhibition=[(high control−sample)/(high control−low control)]×100.
As a reminder, the IC50 is the midpoint of a concentration-inhibition curve. In the case of `COc1cncc(Oc2ccc3c(c2Br)[C@@H](O)C(F)(F)S3(=O)=O)c1` [Compound 193, (R)-4-bromo-2,2-difluoro-3-hydroxy-5-((5-methoxypyridin-3-yl)oxy)-2,3-dihydrobenzo[b]thiophene 1,1-dioxide], the IC50 was found to be 14300 nM. On the same count and under the same terms, to `CCOc1ccc2c(c1C(F)F)[C@@H](O)C(F)(F)S2(=O)=O` [Compound 202, (R)-4-(Difluoromethyl)-5-ethoxy-2,2-difluoro-3-hydroxy-2,3-dihydrobenzo[b]thiophene 1,1-dioxide] belongs 15500 nM. The same measure, in the same setting: the same measure for `N#Cc1cc(F)cc(Oc2ccc3c(c2C(F)F)C(O)(C(F)(F)F)C(F)(F)S3(=O)=O)c1` (centres unmarked) [Compound 209, 3-((4-(difluoromethyl)-2,2-difluoro-3-hydroxy-1,1-dioxido-3-(trifluoromethyl)-2,3-dihydrobenzo[b]thiophen-5-yl)oxy)-5-fluorobenzonitrile]: 4400 nM.

For a further test, the system named is 786-O-Hif-Luc cells. The experiment in a line: Luciferase Assay. The class given is cell-based. Conditions: 786-O-Hif-Luc cells; about 24 hours; read-out: Luciferase EC50. Here is the method: A pool of infected cells were then selected against 2 μg/mL of puromycin (P8833, Sigma) for 10 days followed by limited dilution to select single clones.
Each concentration was tested in triplicate. After about 24 hours, luciferase activity was determined using ONE-Glo Luciferase Assay Reagent (E6110, Promega) following the manufacturer's recommended procedure. EC50 were calculated by using Dotmatics software.
What is called EC50 is the concentration at which the effect is half-maximal. As for `N#Cc1cc(F)cc(Oc2ccc3c(c2C(F)F)[C@@H](O)C(F)(F)S3(=O)=O)c1` (single isomer, unassigned) [Compound 113], the EC50 was 7 nM.

The test is the same for the next values; noted with them: 24 h, 786-O-Hif-Luc cells; about 24 hours; read-out: Luciferase EC50.
In the case of `N#Cc1cc(F)cc(Oc2ccc(S(=O)(=O)C(F)F)c3c2CC(F)(F)[C@H]3O)c1` [Compound 1, 3-[(1S)-7-(difluoromethylsulfonyl)-2,2-difluoro-1-hydroxy-indan-4-yl]oxy-5-fluoro-benzonitrile], the EC50 amounted to 7 nM. Still for that read-out and setting: to `Cn1cc(Oc2ccc(S(=O)(=O)C(F)(F)F)c3c2CC(F)(F)[C@H]3O)cn1` [Compound 13, (S)-2,2-Difluoro-4-((1-methyl-1H-pyrazol-4-yl)oxy)-7-((trifluoromethyl)sulfonyl)-2,3-dihydro-1H-inden-1-ol] belongs 177 nM.

Take `N#Cc1cc(F)cc(Oc2ccc(S(=O)(=O)C(F)(F)F)c3c2C[C@@H](F)[C@H]3O)c1` [Compound 15, 3-Fluoro-5-(((1S,2R)-2-fluoro-1-hydroxy-7-((trifluoromethyl)sulfonyl)-2,3-dihydro-1H-inden-4-yl)oxy)benzonitrile]: the EC50 amounted to 3 nM. On the same count and under the same terms, the same measure for `O=S(=O)(c1ccc(Oc2ccc(F)c3[nH]ncc23)c2c1C(O)C(F)(F)C2)C(F)(F)F` (centres unmarked) [Compound 21, 2,2-Difluoro-4-((7-fluoro-1H-indazol-4-yl)oxy)-7-((trifluoromethyl)sulfonyl)-2,3-dihydro-1H-inden-1-ol]: 137 nM. As to `O=[N+]([O-])c1ccc(Oc2cc(F)cc(Cl)c2)c2c1C(O)CC2` (centres unmarked) [Compound 27, 4-(3-Chloro-5-fluorophenoxy)-7-nitro-2,3-dihydro-1H-inden-1-ol], the EC50 is 1390 nM. Still for that read-out and setting: to `CS(=O)(=O)c1ccc(Oc2cc(F)cc(C#N)c2)c2c1[C@H](O)CC2` [Compound 51, 3-fluoro-5-[(1R)-1-hydroxy-7-methylsulfonyl-indan-4-yl]oxy-benzonitrile] belongs 650 nM; to `CS(=O)(=O)c1ccc(Oc2cc(F)cc(C#N)c2)c2c1[C@H](O)[C@H](F)[C@@H]2F` [Compound 53, 3-[(1S,2S,3R)-2,3-difluoro-1-hydroxy-7-methylsulfonyl-indan-4-yl]oxy-5-fluoro-benzonitrile], 4 nM; to `CS(=O)(=O)c1ccc(Oc2cc(F)cc(C#N)c2)c2c1[C@H](O)[C@H](F)[C@H]2F` [Compound 58, 3-[(1S,2S,3S)-2,3-difluoro-1-hydroxy-7-methylsulfonyl-indan-4-yl]oxy-5-fluoro-benzonitrile], 1020 nM. Turning to `N#Cc1cc(F)cc(Oc2ccc(S(N)(=O)=O)c3c2[C@@H](F)[C@@H](F)[C@H]3O)c1` [Compound 100, (1R,2S,3S)-7-(3-cyano-5-fluoro-phenoxy)-1,2-difluoro-3-hydroxy-indane-4-sulfonamide], the EC50 turned out to be 67 nM. The same measure, in the same setting: to `O=S1(=O)c2ccc(Oc3cc(F)cc(F)c3)c(C(F)F)c2C(O)C1F` (centres unmarked) [Compound 133, 4-(difluoromethyl)-5-(3,5-difluorophenoxy)-2-fluoro-3-hydroxy-2,3-dihydrobenzo[b]thiophene 1,1-dioxide] belongs 124 nM.

The same test, now with this note: 24 h, read-out: Luciferase EC50.
Take `CS(=O)(=O)c1ccc(Oc2cc(F)cc(C#N)c2)c2c1[C@H](O)C(F)(F)C2` [Compound 5, (S)-3-((2,2-Difluoro-1-hydroxy-7-(methylsulfonyl)-2,3-dihydro-1H-inden-4-yl)oxy)-5-fluorobenzonitrile]: the EC50 was found to be 24 nM. On the same count and under the same terms, to `CS(=O)(=O)c1ccc(Oc2cc(F)cc(C#N)c2)c2c1[C@H](N)C(F)(F)C2` [Compound 6, 3-[(1S)-1-Amino-2,2-difluoro-7-methylsulfonyl-indan-4-yl]oxy-5-fluoro-benzonitrile] belongs 244 nM; to `[2H]C([2H])([2H])S(=O)(=O)c1ccc(Oc2cc(F)cc(C#N)c2)c2c1[C@]([2H])(O)C(F)(F)C2` [Compound 16, 3-[(1S)-1-Deuterio-2,2-difluoro-1-hydroxy-7-(trideuteriomethylsulfonyl)indan-4-yl]oxy-5-fluoro-benzonitrile], 24 nM; to `CS(=O)(=O)c1ccc(Oc2cc(F)cc(C#N)c2)c2c1[C@H](O)[C@H](F)C2` [Compound 17, 3-Fluoro-5-(((1S,2R)-2-fluoro-1-hydroxy-7-(methylsulfonyl)-2,3-dihydro-1H-inden-4-yl)oxy)benzonitrile], 36 nM. Still for that read-out and setting: the same measure for `N#Cc1cncc(Oc2ccc(S(=O)(=O)C(F)(F)F)c3c2CC(F)(F)[C@H]3O)c1` [Compound 18, (S)-5-((2,2-Difluoro-1-hydroxy-7-((trifluoromethyl)sulfonyl)-2,3-dihydro-1H-inden-4-yl)oxy)nicotinonitrile]: 15 nM. Still for that read-out and setting: to `[2H][C@]1(O)c2c(S(C)(=O)=O)ccc(Oc3cc(F)cc(C#N)c3)c2CC1(F)F` [Compound 23, (S)-3-((2,2-Difluoro-1-hydroxy-7-(methylsulfonyl)-2,3-dihydro-1H-inden-4-yl-1-d)oxy)-5-fluorobenzonitrile] belongs 24 nM; to `CNS(=O)(=O)c1ccc(Oc2cc(F)cc(C#N)c2)c2c1[C@H](O)C(F)(F)C2` [Compound 26, (S)-7-(3-Cyano-5-fluorophenoxy)-2,2-difluoro-3-hydroxy-N-methyl-2,3-dihydro-1H-indene-4-sulfonamide], 119 nM; to `CS(=O)(=O)c1ccc(Oc2cc(F)cc(C#N)c2)c2c1[C@H](O)[C@@H](F)C2` [Compound 35, 3-fluoro-5-(((1S,2S)-2-fluoro-1-hydroxy-7-(methylsulfonyl)-2,3-dihydro-1H-inden-4-yl)oxy)benzonitrile], 473 nM. For the compound `N#Cc1cc(F)cc(Oc2ccc(S(=O)(=O)C(F)(F)F)c3c2CC(F)(F)[C@H]3N)c1` [Compound 54, 3-[(1S)-1-amino-2,2-difluoro-7-(trifluoromethylsulfonyl)indan-4-yl]oxy-5-fluoro-benzonitrile], the half-maximal effective concentration (EC50) came out at 170 nM. Still for that read-out and setting: the same measure for `N#Cc1cc(F)cc(Oc2ccc(S(N)(=O)=O)c3c2[C@H](F)C(F)(F)[C@H]3O)c1` [Compound 103, (1S,3S)-7-(3-cyano-5-fluoro-phenoxy)-1,2,2-trifluoro-3-hydroxy-indane-4-sulfonamide]: 253 nM.

The test is the same for the next values; noted with them: read-out: Luciferase EC50.
Consider `N#Cc1cc(F)cc(Oc2ccc3c(c2C(F)F)[C@H](O)C(F)(F)S3(=O)=O)c1` (single isomer, unassigned) [Compound 144], for which the EC50 came to 19 nM.

For the compound `O=S1(=O)CC(O)c2c1ccc(Oc1cc(F)cc(Cl)c1)c2Br` (centres unmarked) [Compound 116, 4-Bromo-5-(3-chloro-5-fluorophenoxy)-3-hydroxy-2,3-dihydrobenzo[b]thiophene 1,1-dioxide], the EC50 stood at 4800 nM.
